Measured values from publication PMC3725310 (Nature, 2013).

Target: p7(5a) (Hepatitis C virus (isolate EUH1480), UniProt O39928, A759S/C749A/C774T/C791S/T748G)
Assay: biochemical
Assay type: binding

Question: CC(N)C12CC3CC(CC(C3)C1)C2 (stereo not shown) [rimantadine] was tested. Which Kd did it give?
Answer: 50 to 100 µM
